This is an account of results in patent US8735414B2 (priority 2009, dated 2014).

The subject of series [1] is bicistronic HCV replicon (replicon RNA, GenBank Accession No. AJ242654). Put plainly: HCV Replicon Assay. Format: cell-based. The settings on record: Hepatitis C virus, 72 h, read-out: Replicon IC50. In general terms: A replicon is a self-replicating genome or part of one, used to study replication in cells.

In turn, `Cc1cnc(-n2c(-c3ccc(S(=O)(=O)N[C@@H](C)C(F)(F)F)cn3)c(C(N)=O)c3cc(F)c(C)cc32)cn1` [compound 904, 5-fluoro-6-methyl-1-(5-methylpyrazin-2-yl)-2-(5-{[(2S)-1,1,1-trifluoropropan-2-yl]sulfamoyl}pyridin-2-yl)-1H-indole-3-carboxamide] returned a melting point of 202 to 208 °C. Also, the IC50 in series [1] is below 500 nM.
The like results for `Cc1c(F)cc2c(C#N)c(-c3ccc(S(=O)(=O)NC4(C(F)(F)F)CC4)cn3)n(C3CCC3)c2c1F` [compound 667, 6-(3-cyano-1-cyclobutyl-5,7-difluoro-6-methyl-1H-indol-2-yl)-N-[1-(trifluoromethyl)cyclopropyl]pyridine-3-sulfonamide] were, in that order, 235 to 241 °C and below 500 nM.
In turn, `Cc1cc2c(cc1F)c(C#N)c(-c1ccc(S(=O)(=O)NC(C)(C)C)cn1)n2C1CCCCC1` [compound 710, N-tert-butyl-6-(3-cyano-1-cyclohexyl-5-fluoro-6-methyl-1H-indol-2-yl)pyridine-3-sulfonamide] showed a melting point of 244 to 245 °C. For the same compound, the IC50 in series [1] was below 500 nM.
The like results for `N#Cc1c(-c2ccc(S(=O)(=O)NC(CF)CF)cn2)n(-c2ccccn2)c2cc(OC(F)F)ccc12` [compound 249, 6-[3-cyano-6-(difluoromethoxy)-1-(pyridin-2-yl)-1H-indol-2-yl]-N-(1,3-difluoropropan-2-yl)pyridine-3-sulfonamide] were, in that order, 186 to 190 °C and below 500 nM.
In the case of `C[C@H](NS(=O)(=O)c1ccc(-c2c(C#N)c3cc(F)c(Br)cc3n2-c2ncccn2)nc1)C(F)(F)F` [compound 895, 6-[6-bromo-3-cyano-5-fluoro-1-(pyrimidin-2-yl)-1H-indol-2-yl]-N-[(2S)-1,1,1-trifluoropropan-2-yl]pyridine-3-sulfonamide], the melting point lay within 224 to 226 °C. The IC50 in series [1] is below 500 nM.
Compound `Cc1cccc(-n2c(-c3ccc(S(=O)(=O)N[C@@H](C)C(F)(F)F)cn3)c(C#N)c3cc(F)c(C)cc32)n1` [compound 923, 6-[3-cyano-5-fluoro-6-methyl-1-(6-methylpyridin-2-yl)-1H-indol-2-yl]-N-[(2S)-1,1,1-trifluoropropan-2-yl]pyridine-3-sulfonamide] registered a melting point of 219 to 225 °C. Also, the IC50 in series [1] is below 500 nM.
As for `CC[C@H](NS(=O)(=O)c1ccc(-c2c(C#N)c3cc(F)c(OC(F)F)cc3n2C2CCC2)nc1)C(F)(F)F` [compound 738, 6-[3-cyano-1-cyclobutyl-6-(difluoromethoxy)-5-fluoro-1H-indol-2-yl]-N-[(2S)-1,1,1-trifluorobutan-2-yl]pyridine-3-sulfonamide], the melting point lay in the range of 166 to 173 °C. Moreover, the IC50 in series [1] was below 500 nM.
In turn, `Cc1ccc2c(C#N)c(-c3ccc(S(=O)(=O)NC(C)(C)C(F)(F)F)cn3)n(-c3ncccn3)c2c1` [compound 689, 6-[3-cyano-6-methyl-1-(pyrimidin-2-yl)-1H-indol-2-yl]-N-(1,1,1-trifluoro-2-methylpropan-2-yl)pyridine-3-sulfonamide] had a melting point of 202 to 205 °C. The IC50 in series [1] was 500 to 2000 nM.
`Cc1cc(-n2c(-c3ccc(S(=O)(=O)N[C@@H](C)C(F)(F)F)cn3)c(C#N)c3cc(F)c(C)cc32)cs1` [compound 1058, 6-[3-cyano-5-fluoro-6-methyl-1-(5-methylthiophen-3-yl)-1H-indol-2-yl]-N-[(2S)-1,1,1-trifluoropropan-2-yl]pyridine-3-sulfonamide] came in with a melting point of 210.5 to 215.2 °C. Moreover, in series [1], the IC50 is below 500 nM.
Compound `Cc1c(OC(F)F)c(F)cc2c(C#N)c(-c3ccc(S(=O)(=O)N[C@@H](C)C(F)(F)F)cn3)n(C3CCC3)c12` [compound 811, 6-[3-cyano-1-cyclobutyl-6-(difluoromethoxy)-5-fluoro-7-methyl-1H-indol-2-yl]-N-[(2S)-1,1,1-trifluoropropan-2-yl]pyridine-3-sulfonamide] had a melting point of 168 to 174 °C. Moreover, the IC50 in series [1] was below 500 nM.
In the case of `CC(C)(NS(=O)(=O)c1ccc(-c2c(C(N)=O)c3cc(F)c(C4CC4)cc3n2C2CCCC2)nc1)C(F)(F)F` [compound 850, 1-cyclopentyl-6-cyclopropyl-5-fluoro-2-{5-[(1,1,1-trifluoro-2-methylpropan-2-yl)sulfamoyl]pyridin-2-yl}-1H-indole-3-carboxamide], the melting point was in the range of 236 to 237 °C. Besides, the IC50 in series [1] is below 500 nM.
Compound `CCc1cc(F)c2c(C(N)=O)c(-c3ccc(NS(=O)(=O)C(C)(C)C)nc3)n(-c3ccc(F)cc3)c2c1` [compound 1106, 2-{6-[(tert-butylsulfonyl)amino]pyridin-3-yl}-6-ethyl-4-fluoro-1-(4-fluorophenyl)-1H-indole-3-carboxamide] had a melting point of 280 to 288 °C. In addition, the IC50 in series [1] was below 500 nM.
The like results for `Cc1cc2c(cc1F)c(C#N)c(-c1ccc(S(=O)(=O)NC3(C)CC3)cn1)n2C1CCCC1` [compound 645, 6-(3-cyano-1-cyclopentyl-5-fluoro-6-methyl-1H-indol-2-yl)-N-(1-methylcyclopropyl)pyridine-3-sulfonamide] were, in that order, 208 to 209 °C and below 500 nM.
With `Cc1ccnc(-n2c(-c3ccc(S(=O)(=O)N[C@@H](C)C(F)(F)F)cn3)c(C(N)=O)c3cc(F)c(C)cc32)n1` [compound 905, 5-fluoro-6-methyl-1-(4-methylpyrimidin-2-yl)-2-(5-{[(2S)-1,1,1-trifluoropropan-2-yl]sulfamoyl}pyridin-2-yl)-1H-indole-3-carboxamide], the melting point was in the range of 205 to 210 °C. Moreover, the IC50 in series [1] was below 500 nM.
The like results for `CCc1cc2c(cc1F)c(C#N)c(-c1ccc(S(=O)(=O)N[C@@H](C)C(F)(F)F)cn1)n2-c1cnccn1` [compound 929, 6-[3-cyano-6-ethyl-5-fluoro-1-(pyrazin-2-yl)-1H-indol-2-yl]-N-[(2S)-1,1,1-trifluoropropan-2-yl]pyridine-3-sulfonamide] were, in that order, 225 to 229 °C and below 500 nM.
In the same order, the values of `N#Cc1c(-c2ccc(S(=O)(=O)NC(CF)CF)cn2)n(C2CCC2)c2ccc(F)cc12` [compound 29, 6-(3-cyano-1-cyclobutyl-5-fluoro-1H-indol-2-yl)-N-(1,3-difluoropropan-2-yl)pyridine-3-sulfonamide] are 206 to 208 °C and below 500 nM.
In the same order, the values of `Cc1ccc2c(c1)c(C#N)c(-c1ncc(S(=O)(=O)NC(CF)CF)cn1)n2CC1CC1` [compound 524, 2-[3-cyano-1-(cyclopropylmethyl)-5-methyl-1H-indol-2-yl]-N-(1,3-difluoropropan-2-yl)pyrimidine-5-sulfonamide] are 151 to 155 °C and below 500 nM.
`CC(C)NS(=O)(=O)c1cnc(-c2c(C#N)c3cc(F)ccc3n2C2CCC2)nc1` [compound 416, 2-(3-cyano-1-cyclobutyl-5-fluoro-1H-indol-2-yl)-N-(propan-2-yl)pyrimidine-5-sulfonamide]: the melting point fell in the range of 195 to 200 °C. Moreover, the IC50 in series [1] was below 500 nM.
Regarding `CCCn1c(-c2ccc(S(=O)(=O)NC(CF)CF)cn2)c(C#N)c2ccc(OC(F)F)cc21` [compound 45, 6-[3-cyano-6-(difluoromethoxy)-1-propyl-1H-indol-2-yl]-N-(1,3-difluoropropan-2-yl)pyridine-3-sulfonamide], the melting point was in the range of 156 to 158 °C. The IC50 in series [1] is below 500 nM.
`N#Cc1c(-c2ncc(S(=O)(=O)NC(CF)CF)cn2)n(C2CCC2)c2cc(OC(F)F)c(Cl)cc12` [compound 659, 2-[5-chloro-3-cyano-1-cyclobutyl-6-(difluoromethoxy)-1H-indol-2-yl]-N-(1,3-difluoropropan-2-yl)pyrimidine-5-sulfonamide] displayed a melting point of 228 to 232 °C. In addition, the IC50 in series [1] is below 500 nM.
`Cc1cc2c(cc1F)c(C#N)c(-c1ncc(S(=O)(=O)N[C@@H](C)C(F)(F)F)cc1C)n2-c1ncccn1` [compound 888, 6-[3-cyano-5-fluoro-6-methyl-1-(pyrimidin-2-yl)-1H-indol-2-yl]-5-methyl-N-[(2S)-1,1,1-trifluoropropan-2-yl]pyridine-3-sulfonamide] yielded a melting point of 201 to 204 °C. In addition, the IC50 in series [1] was below 500 nM.
Regarding `Cc1cc(F)c2c(C#N)c(-c3ccc(S(=O)(=O)NC4(C(F)(F)F)CC4)cn3)n(C3CCC3)c2c1` [compound 629, 6-(3-cyano-1-cyclobutyl-4-fluoro-6-methyl-1H-indol-2-yl)-N-[1-(trifluoromethyl)cyclopropyl]pyridine-3-sulfonamide], the melting point lay in the range of 241 to 246 °C. Moreover, in series [1], the IC50 was 2000 to 5000 nM.
In the same order, the values of `N#Cc1c(-c2ncc(S(=O)(=O)NC(CF)CF)cn2)n(C2CCCC2)c2cc(CC(F)F)ccc12` [compound 599, 2-[3-cyano-1-cyclopentyl-6-(2,2-difluoroethyl)-1H-indol-2-yl]-N-(1,3-difluoropropan-2-yl)pyrimidine-5-sulfonamide] are 174 to 210 °C and below 500 nM.
As for `C[C@H](NS(=O)(=O)c1ccc(-c2c(C(N)=O)c3cc(F)c(OC(F)F)cc3n2C2CCC2)nc1)C(F)(F)F` [compound 703, 1-cyclobutyl-6-(difluoromethoxy)-5-fluoro-2-(5-{[(2S)-1,1,1-trifluoropropan-2-yl]sulfamoyl}pyridin-2-yl)-1H-indole-3-carboxamide], the melting point was 184 to 186 °C. The IC50 in series [1] was below 500 nM.
The like results for `Cc1c(F)cc2c(C#N)c(-c3ccc(S(=O)(=O)NC(C)(C)C(F)(F)F)cn3)n(C3CCCC3)c2c1F` [compound 580, 6-(3-cyano-1-cyclopentyl-5,7-difluoro-6-methyl-1H-indol-2-yl)-N-(1,1,1-trifluoro-2-methylpropan-2-yl)pyridine-3-sulfonamide] were, in that order, 226 to 232 °C and below 500 nM.

One may read the IC50 as the midpoint of a concentration-inhibition curve. The term melting point denotes the temperature, or range, at which the solid turns liquid.
